A short description of the series: gradient 5% acetonitrile 3 min, to 50% in 2 min, to 85% in 15 min, held 3 min, 100 µL/min. To be noted: column: Zorbax Extend-C18 2.1 x 50 mm; eluents: water / acetonitrile, 0.1% formic acid. In a few lines:
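Over 3 months, pure standards in mixtures of ~100 molecules were run by HPLC coupled to a quadrupole time-of-flight mass spectrometer in positive and negative ionization mode. The column was a Zorbax Extend-C18 (2.1 × 50 mm, 1.8 μm) at 100 μL/min, eluted with water and acetonitrile each holding 0.1% formic acid, with 40 μL dead and 900 μL dwell volumes. Retention time was determined from adduct peaks chosen by software and checked manually.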
The compound `Cc1c(CC(=O)N2CCN(c3cccc(Cl)c3)CC2)c2c(=O)n(C)c(=O)n(C)c2n1C` gave an RP-LC retention time of 790 s. Compound `CCc1cc(-c2csc(S(=O)(=O)NCc3ccc(Br)cc3)c2)on1` showed an RP-LC retention time of 1020 s.

Compound `O=C(NCc1ccccc1F)c1cc(N2CCCC2)n2nccc2n1` had an RP-LC retention time of 994 s. Compound `O=C(c1ccoc1)N1CC(N(Cc2ccncc2)CC2CC2)C1` yielded an RP-LC retention time of 593 s. The same measure for `O=C(COc1ccccc1F)Nc1nnc(C2CCCCC2)o1`: 766 s. Then `CC1CC(=O)N(CC(=O)Nc2ccc3c(c2)OCO3)c2ccccc2S1` (stereo unspecified), with 865 s; and `Cc1cccc(S(=O)(=O)N2CCC(n3cnnc3C3CC3)CC2)c1`, with 713 s. `Cc1cccc(/C=C/c2ccccc2)n1` registered an RP-LC retention time of 664 s. For the compound `CN(C)[C@@H]1CN(C(=O)Cn2c(=O)oc3cc(Cl)ccc32)C[C@H]1CO`, the RP-LC retention time was 596 s. The same measure for `Nc1ccc(SCc2nc3cccc4c3n2CCC4)cc1`: 662 s; for `O=C(Nc1cnc(N2CCCCCC2)nc1)c1ccsc1`: 822 s. `Cc1noc(-c2ccnc(-n3ncc(C(=O)NC4CCCCC4)c3C)c2)n1` displayed an RP-LC retention time of 892 s. The compound `NC(=O)Cn1c(Cc2ccccc2Cl)nc2ccccc21` showed an RP-LC retention time of 591 s.

`O=C(Cc1ccc(Cl)cc1)N1CCC2(C1)C(=O)Nc1ccccc12` (stereo unspecified): the RP-LC retention time is 758 s. In turn, `Cc1ccccc1CNC(=O)Cn1c(C)cc(-c2nnc(-c3ccccc3)o2)c1C` came in with an RP-LC retention time of 957 s. In the case of `Cc1ccc(-n2nc(N3CCN(C(=O)Nc4cc(F)ccc4F)CC3)ccc2=O)cc1`, the RP-LC retention time stood at 834 s. In turn, `Cc1ccc(NC(=O)N2CCc3nc(-c4ccc(F)cc4)ncc3C2)c(Cl)c1` had an RP-LC retention time of 1080 s. The compound `CCN1C(=O)Cc2ccccc2C1C(=O)NCc1ccccc1Br` (stereo unspecified) had an RP-LC retention time of 780 s. With `CC(=O)Nc1ccc(OCC(O)CNC(C)(C)CC(C)(C)C)cc1` (stereo unspecified), the RP-LC retention time came to 562 s.

The compound `COc1ccc(C2C(C(=O)N3CCN(C)CC3)c3cc(OC)c(OC)cc3C(=O)N2C)cc1` (stereo unspecified) came in with an RP-LC retention time of 640 s. As for `CCN1CCN(C(=O)CSCc2nc3cccnc3n2C2CCCCC2)CC1`, the RP-LC retention time stood at 625 s.

Consider `Cn1c(=O)sc2cc(S(=O)(=O)N3CCC(C(=O)Nc4ccc5c(c4)OCO5)CC3)ccc21`, for which the RP-LC retention time is 817 s.

In the case of `COC(=O)c1c(NCCc2cccs2)c2cccc(Cl)c2[nH]c1=O`, the RP-LC retention time turned out to be 823 s. For the compound `O=C(Nc1ccc(N2CCN(C3CCCCC3)C2=O)nc1)c1ccc(F)cc1`, the RP-LC retention time stood at 926 s.

`O=C(Cc1cccn1-c1ccc(Cl)cc1)NCCCN1CCOCC1` yielded an RP-LC retention time of 625 s. `CCS(=O)(=O)N1CCCc2cc(C(=O)Nc3ccccc3Br)ccc21` registered an RP-LC retention time of 986 s. Compound `CCC(C)NC(=O)N1CCN(Cc2nc3cccnc3n2-c2cccc(C)c2)CC1` (stereo unspecified) came in with an RP-LC retention time of 646 s.

`COc1ccc(Cl)cc1NC(=O)N1CCC2(CC1)NC(=O)c1cc(C)ccc1N2C` gave an RP-LC retention time of 895 s.

On to `CCCCOc1ccc(C(=O)NCc2ccco2)cc1`, for which the RP-LC retention time was 865 s. For `NC(=O)c1cccn1Cc1ccc(Cl)cc1`, the RP-LC retention time was 778 s. The compound `CCCCC(SC1=Nc2ccccc2C2=NC(Cc3c[nH]c4ccccc34)C(=O)N12)C(=O)OCC` (stereo unspecified) gave an RP-LC retention time of 1110 s. The same measure for `CCc1nn(CC(=O)N2CCC(C(N)=O)CC2)c(=O)c2cc3sccc3n12`: 614 s; for `Cc1ccc(C)c(NS(=O)(=O)c2cc(-c3[nH]ncc3C(=O)N3CCCCC3)oc2C)c1`: 799 s; for `CC(C)CN1CCN(C(=O)c2cc3c(s2)CCN(C(=O)c2ccc(Cl)cc2)C3)CC1`: 664 s. `COCC(=O)NC/C=C/c1ccc2ncnc(Nc3ccc(Oc4ccc(C)nc4)c(C)c3)c2c1` had an RP-LC retention time of 622 s. `COCC(=O)N1CCC2(CC1)NC(=O)N(CCc1ccccc1)C2=O`: the RP-LC retention time is 631 s. Consider `COc1ccc(OC)c(NC(=O)CSC2CCc3ccccc3NC2=O)c1` (stereo unspecified), for which the RP-LC retention time was 797 s.

`O=C(NC1CCCC1)C1CCCN(c2ccc(=O)n(-c3ccc(F)cc3)n2)C1` (stereo unspecified) showed an RP-LC retention time of 763 s. On to `O=C(C1CC(=O)N(c2ccccc2)C1)N1CCSCC1` (stereo unspecified), for which the RP-LC retention time was 828 s. On to `Cc1ccc2nc(C(=O)N3CCN(c4ccccc4Cl)CC3)cn2c1`, for which the RP-LC retention time is 748 s. `CCOC(=O)N1CCN(C(=O)C2CCN(c3ccc(Sc4ccc(C(C)C)cc4)nn3)CC2)CC1` came in with an RP-LC retention time of 896 s.

The compound `Cc1cc(C(=O)Nc2c(F)cc(F)cc2Br)n(-c2ccccc2)n1` returned an RP-LC retention time of 884 s. The compound `CCC(c1ccccc1)c1nc(-c2ccc3nnn(C)c3c2)no1` (stereo unspecified) registered an RP-LC retention time of 1100 s. On to `ONC(=NCc1ccccc1)c1ccccc1`, for which the RP-LC retention time was determined as 690 s.

In turn, `CCOC(=O)c1noc2ncnc(N3CCc4cc(OC)c(OC)cc4C3C)c12` (stereo unspecified) came in with an RP-LC retention time of 1000 s. `Cc1ccc(-c2nc(NC(=O)CCc3ccccc3)sc2C)cc1` yielded an RP-LC retention time of 1150 s.

On to `O=C(CNC(=O)c1ccc(=O)[nH]c1)NCCOc1ccc(F)cc1`, for which the RP-LC retention time is 583 s. Compound `CCCn1cc(S(=O)(=O)Nc2ccc(OC)cc2)c2cccnc21` displayed an RP-LC retention time of 886 s. In turn, `O=C(C1CCCN(c2ccc(-c3ccccc3)nn2)C1)N1CCN(C2CCCCC2)CC1` (stereo unspecified) showed an RP-LC retention time of 597 s. Turning to `Cc1cccc(-c2noc(-c3nn(-c4cccc(F)c4)ccc3=O)n2)c1`, the RP-LC retention time stood at 928 s. `Cc1cc(C)cc(N2CCC(NC(=O)Nc3ccccc3Cl)C2=O)c1` (stereo unspecified) registered an RP-LC retention time of 936 s. The compound `CNC(=O)c1cn(-c2ccc(SCC(=O)NCc3ccc4c(c3)OCO4)nn2)cn1` returned an RP-LC retention time of 642 s. Turning to `Cc1cc(C)c(S(=O)(=O)N2CCc3c(c(-c4nnc(-c5ccccc5)o4)nn3C)C2)c(C)c1`, the RP-LC retention time came to 1090 s.

On to `COC(=O)c1ncn2c1C(=O)N(Cc1ccc(Cl)cc1)C(C)(C(=O)NC1CCCC1)C2` (stereo unspecified), for which the RP-LC retention time was 758 s. As to `COc1cccc(-c2noc(CN3C(=O)COc4cc(C(C)(C)C)ccc43)n2)c1`, the RP-LC retention time amounted to 1200 s. In turn, `c1ccc2sc(C3(NCC4CC4)CCCCC3)cc2c1` showed an RP-LC retention time of 799 s.

Compound `CN1C(=O)CCc2cc(NC(=O)Cc3ccsc3)ccc21` yielded an RP-LC retention time of 709 s. Compound `Cc1ccc(NC(=O)C2CCN(S(=O)(=O)c3cc(C(=O)N(C)C)cs3)CC2)cc1C` returned an RP-LC retention time of 835 s. As for `O=C(NC1CC1)c1c2c(nc3ccccc13)CCC2`, the RP-LC retention time was found to be 566 s. In turn, `CCn1ccc2sc(C)c(C(=O)N3CCC(N4CCCCC4)CC3)c2c1=O` returned an RP-LC retention time of 566 s. Then `CCCC1c2nccn2CCCN1C(=O)c1c(C)noc1C` (stereo unspecified), with 576 s.

The values are drawn from the METLIN SMRT retention time set (Domingo-Almenara et al. 2019).
